In patent US11226337B2, “Chemoproteomic profiling of protein electrophilic and oxidative post-translational modifications” (Zenagem, LLC, priority 2017, dated 2022):

How the values were obtained:
Type in all cases: cell-based
[1] = target: T1, SCRN3 Secernin-3 (Q0VDG4) (Homo sapiens, UniProt Q0VDG4); experiment: SILAC RP-ABPP; settings: SILAC competition, drug in place of probe 3
T1 construct: shared by both the endogenous and recombinant forms of these proteins; endogenous in cells; host or cells: HEK293T and MDA-MB-231
T1 sequence (Q0VDG4 6-424): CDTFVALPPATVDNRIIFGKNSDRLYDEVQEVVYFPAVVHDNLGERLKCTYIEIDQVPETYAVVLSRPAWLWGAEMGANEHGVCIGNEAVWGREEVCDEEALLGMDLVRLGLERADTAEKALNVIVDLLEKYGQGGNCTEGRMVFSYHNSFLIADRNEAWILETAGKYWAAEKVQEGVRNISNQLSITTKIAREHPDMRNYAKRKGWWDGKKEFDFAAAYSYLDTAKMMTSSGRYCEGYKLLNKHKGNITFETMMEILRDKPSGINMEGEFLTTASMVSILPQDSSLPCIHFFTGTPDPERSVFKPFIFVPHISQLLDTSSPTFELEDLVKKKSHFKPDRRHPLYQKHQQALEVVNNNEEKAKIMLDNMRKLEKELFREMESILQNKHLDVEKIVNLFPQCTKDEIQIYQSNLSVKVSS
Description: (§1) Modifications to this protocol included using isotopically ‘light’ and ‘heavy’ SILAC cells that were also grown to near complete confluence prior to treatment. Isotopically light cells were treated with the non-clickable hydrazine probe (at the same concentration as the probe in ‘enrichment’ experiments) or the probe in the presence of 10-fold excess non-clickable hydrazine probe as a competitor (in ‘competition’ experiments). Isotopically heavy cells were treated with the probe for both types of experiments. These treatments were performed in non-SILAC media. Following treatments, cells were washed with cold PBS to remove the probe-containing media, harvested by scraping, collected by centrifugation (1,400 g, 3 min, 4° C.), washed again by resuspension in cold PBS and frozen as pellets at −80° C. until use.
(§2) The fractionated equimolar mixture of heavy and light soluble proteomes (1-1.5 mg) was diluted to 1 mL in PBS. Click reactions were scaled accordingly (except for biotin-azide) to maintain final concentrations of 0.1 mM TBTA, 1 mM CuSO4, 100 μM biotin-azide (10 mM in DMSO) and 1 mM TCEP. The mixture was vortexed and placed on a rotator at ambient temperature for 1 hour. Sequential addition of and mixture with pre-chilled methanol (MeOH, 2 mL), chloroform (CHCl3, 0.5 mL) and PBS (1 mL) on ice quenched the reaction. The precipitated proteome was centrifuged (5,000 g, 10 min, 4° C.) to fractionate the protein interphase from the organic and aqueous solvent layers. The protein pellet was washed with cold 1:1 MeOH:CHCl3 (3×1 mL), mildly sonicated in cold 4:1 MeOH:CHCl3 (2.5 mL) and pelleted once more by centrifugation (5,000 g, 10 min, 4° C.) to ensure click reagents were efficiently removed.
(§3) Heavy and light parent ion chromatograms associated with successfully identified peptides were extracted and compared using CIMAGE software as previously described^69. At least one ion of a co-eluting heavy-light pair must be accurately identified from a fragmentation event that occurred within the retention time window (±10 min) of parent ion elution. To ensure that the correct pair of peaks is quantified, chromatograms are extracted within a 10 ppm error tolerance of the predicted m/z, the signal-to-noise ratio must be >2.5 and the ‘co-elution correlation score’ and ‘envelope correlation score’ must have R^2 values ≥0.8. In addition, peptides detected as ‘singletons,’ where only the heavy ion of a peptide pair was identified, but for which passed all other filtering parameters, are given a default assigned ratio of ‘20,’ which is defined as any measured ratio that is ≥20.
(§4) To further eliminate false positives and any stochastic variability in the data, protein ratios were then determined by the median peptide ratio derived from three or more unique quantified peptides. Protein ratios that complied with these criteria from a single experiment were then averaged with ratios acquired from ≥3 replicates to provide final values for each type of experiment in both cell lines with both probes. […] Probe targets in HEK293T and MDA-MB-231 cells represent data combined from ≥3 independent biological replicates with each cell type performed with several independent batches of synthesized probes over a period of almost two years.
(§5) Two types of experiments were performed—1) direct enrichment of probe 1-labelled proteins from heavy cells in comparison to light control cells treated with the non-clickable hydrazine (3) at the same concentration as 1 (3 mM for 0.5 h); and 2) competition experiments where both heavy and light cells were treated probe 1, but light cells were also treated with 10× competitor 3 (FIG. 3A)—in two different human cell lines (HEK293T cells and the human breast cancer cell line MDA-MB-231).

[2] = target: T2, AMD1 S-adenosylmethionine decarboxylase (P17707) (Homo sapiens, UniProt P17707); experiment: SILAC RP-ABPP; settings: SILAC competition, drug in place of probe 3
T2 construct: shared by both the endogenous and recombinant forms of these proteins; endogenous in cells; host or cells: HEK293T and MDA-MB-231
T2 sequence (P17707 68-334 limits assumed): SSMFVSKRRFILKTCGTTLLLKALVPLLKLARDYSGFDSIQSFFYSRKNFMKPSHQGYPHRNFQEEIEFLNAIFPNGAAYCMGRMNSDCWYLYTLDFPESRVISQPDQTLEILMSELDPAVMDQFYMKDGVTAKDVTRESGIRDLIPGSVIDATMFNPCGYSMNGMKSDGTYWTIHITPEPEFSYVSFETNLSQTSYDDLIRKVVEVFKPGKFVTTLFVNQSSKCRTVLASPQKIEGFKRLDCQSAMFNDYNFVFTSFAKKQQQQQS
T2 sequence (P17707 1-67 limits assumed): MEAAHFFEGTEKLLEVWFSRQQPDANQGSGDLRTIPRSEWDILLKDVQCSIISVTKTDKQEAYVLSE
Description: as §1, §2, §3, §4, §5

[3] = target: T3, SCRN2 Secernin-2 (Q96FV2) (Homo sapiens, UniProt Q96FV2); experiment: SILAC RP-ABPP; settings: SILAC competition, drug in place of probe 3
T3 construct: shared by both the endogenous and recombinant forms of these proteins; endogenous in cells; host or cells: HEK293T and MDA-MB-231
Description: as §1, §2, §3, §4, §5

LGMN Legumain (Q99538) = target: T4, LGMN Legumain (Q99538) (Homo sapiens, UniProt Q99538); experiment: SILAC RP-ABPP; settings: SILAC competition, drug in place of probe 3
T4 construct: shared by both the endogenous and recombinant forms of these proteins; endogenous in cells; host or cells: HEK293T and MDA-MB-231
T4 sequence (Q99538 18-323): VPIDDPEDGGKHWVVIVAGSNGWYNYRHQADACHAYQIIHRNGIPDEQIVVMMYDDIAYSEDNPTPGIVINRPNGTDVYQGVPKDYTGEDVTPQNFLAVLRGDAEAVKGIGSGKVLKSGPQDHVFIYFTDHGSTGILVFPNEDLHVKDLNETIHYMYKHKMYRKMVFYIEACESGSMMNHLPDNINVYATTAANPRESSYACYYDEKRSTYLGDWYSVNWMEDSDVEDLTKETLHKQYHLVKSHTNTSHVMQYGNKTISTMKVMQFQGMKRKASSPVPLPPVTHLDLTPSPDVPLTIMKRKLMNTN
Description: as §1, §2, §3, §4, §5

AMD1 = target: T5, AMD1 (Homo sapiens, UniProt P17707); experiment: gel-based RP-ABPP of transfected HEK293T cells; settings: transfected HEK293T cells
T5 construct: Full-length genes encoding three probe 1- and one probe 2-targeted proteins were amplified from a cDNA library; expressed in transfected cells; host or cells: HEK293T
T5 sequence (P17707 68-334 limits assumed): T2 sequence (P17707 68-334 limits assumed)
T5 sequence (P17707 1-67 limits assumed): T2 sequence (P17707 1-67 limits assumed)

FTO = target: T6, FTO (Homo sapiens, UniProt Q9C0B1); experiment: gel-based RP-ABPP of transfected HEK293T cells; settings: transfected HEK293T cells
T6 construct: Full-length genes encoding three probe 1- and one probe 2-targeted proteins were amplified from a cDNA library; expressed in transfected cells; host or cells: HEK293T
Description: (§6) Soluble proteomes from treated cells were diluted to 1 mg/mL. To each sample (50 μL), a freshly prepared “click” or CuAAC reagent mixture (6 μL) containing 0.1 mM tris(benzyltriazolylmethyl)amine (TBTA) (3 μL/sample, 1.7 mM in 4:1 DMSO:t-BuOH), 1 mM CuSO4 (1 μL/sample, 50 mM in H2O), 25 μM azide-rhodamine (1 μL/sample, 1.25 mM in DMSO), and freshly prepared 1 mM tris(2-carboxyethyl)phosphine (TCEP) (1 μL/sample, 50 mM in PBS or H2O) was added to conjugate the fluorophore to probe-labelled proteins. TBTA was purchased from TCI and azide-rhodamine was synthesized as previously described^64. Upon addition of the click mixture, each reaction was immediately mixed by vortexing and then allowed to react at ambient temperature for 1 hour before quenching the reactions with SDS loading buffer (4× stock, 17 μL). Proteins (˜25 μg total protein loaded per gel lane) were resolved by SDS-PAGE (10% acrylamide) and visualized by in-gel fluorescence scanning on a Hitachi FMBIO-II or BioRad ChemiDoc MP flatbed fluorescence scanner.
(§7) Full-length genes encoding three probe 1- and one probe 2-targeted proteins were amplified from a cDNA library derived from the same low-passage HEK293T cells used for proteomic profiling. The library was generated using Ribozol RNA extraction (Amresco) and iScript reverse transcription (Bio-rad) supermix reagents. The gene products were cloned into mammalian expression vectors containing N- or C-terminal FLAG affinity tags. The gene for S-adenosyl-L-methionine decarboxylase (AMD1 or AdoMetDC) was cloned into pFLAG-CMV-sport6 (N-terminal tag) at NotI and SalI restriction sites. AMD1, Secernin-3 (SCRN3) and fat mass- and obesity-associated Fe(II)- and 20G-dependent dioxygenase (FTO) were cloned into pRK5 (C-terminal tag) at SalI and NotI restriction sites. Kelch-like ECH-associated protein-1 (Keapl) (N-terminal tag), and empty plasmids of pRK5 were gifts. Full sequences of the genes were confirmed. The proteins expressed via transient transfection in HEK293T cells contain an additional 15 amino acids appended to their N-terminal methionine residue or C-terminus (MDYKD4KLKACGR (SEQ ID NO: 43) and A3G4DYKD4K (SEQ ID NO: 44), respectively). The DYKD4K (SEQ ID NO: 42) appendage in each contains the classic FLAG epitope that permits detection by western blotting or purification by affinity chromatography. Mutants of SCRN3 were generated using QuikChange site-directed mutagenesis with primers containing the desired mutations and their respective compliments. The gene for the deletion mutant of SCRN3 with the sequence MetlCys6-SCRN3 instead of Met1 Glu2Pro3Phe4Ser5Cys6-SCRN3 (SEQ ID NO: 45) was amplified from the wild-type C-terminal FLAG-tagged construct and cloned into the same vector.
(§8) HEK293T cells were grown to ˜40% confluence under standard growth conditions passaged in the appropriate media before adding the appropriate expression vector (control cells (‘mock’) received an equal amount of the appropriate empty vector) and polyethyleneimine (PEI) ‘MAX’ (MW 40,000, Polysciences Inc.) as a transfection reagent under standard transfection conditions (3:1 vector/PEI (w/w) ratio). Cells were incubated for ˜48 h before labelling in situ. Proteomes were processed for gel- and MS-based experiments as described above and in Example 2.
(§9) After scanning fluorescence, that same gel was transferred to nitrocellulose membrane in Towbin buffer, the membrane was blocked for ˜1 hour at ambient temperature with 5% nonfat dry milk (w/v) in Tris-buffered saline with Tween 20 (TBST) and incubated with primary antibodies in the same solution overnight at 4° C. The antibodies included anti-FLAG (1:2500, F1804, Sigma), anti-AdoMetDC (1:500, sc-160951, Santa Cruz Biotechnology) and anti-His6 (1:1000, ab18184, Abcam). The blots were washed (3×5 min, TBST), incubated with secondary antibodies (1:10,000, IRDye 800CW, LICOR) in milk for 1 hour at ambient temperature, washed again (3×5 min, TBST), and visualized on a LICOR Odyssey Scanner.

KEAP1 = target: T7, KEAP1 (Homo sapiens, UniProt Q14145); experiment: gel-based RP-ABPP of transfected HEK293T cells; settings: transfected HEK293T cells
T7 construct: Full-length genes encoding three probe 1- and one probe 2-targeted proteins were amplified from a cDNA library; expressed in transfected cells; host or cells: HEK293T
Description: as §6, §7, §8, §9

SCRN3 = target: T8, SCRN3 (Homo sapiens, UniProt Q0VDG4); experiment: gel-based RP-ABPP of transfected HEK293T cells; settings: transfected HEK293T cells
T8 construct: Full-length genes encoding three probe 1- and one probe 2-targeted proteins were amplified from a cDNA library; expressed in transfected cells; host or cells: HEK293T
T8 sequence (Q0VDG4 6-424): T1 sequence (Q0VDG4 6-424)
Description: as §6, §7, §8, §9

competition of probe 1 labelling by competitor drug [1] | competition of probe 1 labelling by competitor drug [2] | competition of probe 1 labelling by competitor drug [3] | competition of probe 1 labelling by competitor drug (LGMN Legumain (Q99538)) | SMILES | blocking of probe labeling by excess non-clickable probe (AMD1) | blocking of probe labeling by excess non-clickable probe (FTO) | blocking of probe labeling by excess non-clickable probe (KEAP1) | blocking of probe labeling by excess non-clickable probe (SCRN3)
Near complete loss of probe labelling | Near complete loss of probe labelling | Near complete loss of probe labelling | Near complete loss of probe labelling | NNCCc1ccccc1 [phenelzine, reference compound] | – | – | – | –
– | – | – | – | Cl.NNc1ccccc1 [probe 4, phenyl hydrazine hydrochloride, reference compound] | blocked | blocked | blocked | blocked
